Assays:
Format in all cases: cell-based
NLRP3 inflammasome = biological target: T1, NLRP3 inflammasome (Homo sapiens, UniProt Q96P20); experiment: IL-1β secretion assay (nigericin-activated, PMA-differentiated THP-1 cells, HTRF); conditions: 15 μM nigericin, 3 h, arithmetic mean of at least 3 experiments
T1 construct: NLRP3-dependent IL-1β secretion was stimulated in PMA-differentiated THP-1 cells by the addition of nigericin; host or cells: THP-1 cells, PMA-differentiated

[1] = tested on: Pam3CSK4-stimulated, NF-κB-dependent TNF-α secretion; experiment: TNF-α secretion assay (counter screen, THP-1 cells, HTRF); conditions: Homo sapiens, undifferentiated THP-1 cells, 3 h, at least 2 replicates
Procedure: Monocytic THP-1 cells were maintained according to providers' instructions in RPMI media as described above. Undifferentiated cells were plated at 50,000 cells per well in a 384-well flat-bottom cell culture plates (Greiner, #781986), and allowed to rest overnight. Experimental compounds were prepared and added as described above. TNF-α secretion was triggered by the addition of either 1 μg/mL LPS (Sigma, #L4391) or 100 ng/ml Pam3CSK4 (Invivogen, #tlrl-pms) depending on the experiment, and cells were incubated for 3 h. 10 μL supernatant was removed, and TNF-α levels were monitored using an HTRF assay (CisBio, #62TNFPEC) according to manufacturers' instructions. Viability was monitored as
IC50 values were calculated from the plot of percentage of inhibition versus the inhibitor concentration by a logistics fit according to: y=A2+(A1−A2)/(1+(x/IC50)^p) where y is the %-inhibition at the inhibitor concentration, x. A1 is the lowest inhibition value, i.e. 0%, and A2 the maximum inhibition value, i.e. 100%. The exponent, p, is the Hill coefficient. The curve fitting was conducted with an internally developed software suite. NLRP3-dependent IL-1β secretion was stimulated in PMA-differentiated THP-1 cells by the addition of nigericin, and cytokines were measured in the […] after 3 h. As discussed above, activation of the NLRP3 inflammasome requires both an NF-κB-dependent priming step and the addition of a NLRP3 activator. […] Data for IL-1β secretion was calculated as the arithmetic mean of at least 3 individual experiments, and TNF-α secretion data was consistent across at least 2 individual replicates.

[2] = biological target: T2, alpha-subunit of the hERG channel (Homo sapiens, UniProt Q12809); experiment: hERG electrophysiological inhibition assay using the Qube technology (automated patch clamp, CHO cells)
T2 construct: expressed in transfected cells; host or cells: CHO (T-REX) cells, tetracycline-induced
Procedure: (§1) Chinese hamster ovary (CHO) cell line, overexpressing the alpha-subunit of the hERG channel under the control of tetracycline-regulated promoter, was created using commercially available T-REX™ system (Invitrogen). CHO (T-REX™) hERG cells were maintained in Ham's F-12 nutrient medium (Life Tech) supplemented with 10% fetal bovine serum (HyClone), 1% penicillin-streptomycin, 10 μg/mL Blasticidin and 50 μg/mL Zeocin (all from Life Technologies, Thermo Fisher Scientific). For hERG expression induction, 1 μg/ml tetracycline (Sigma-Aldrich) was added to the growth media 24 hours before the current recording. To prepare the cell suspension for Qube experiments, cells were dislodged from culture flask by incubation in Detachin (Genlantis) at 37° C. for approximately 5 min, and resuspended in CHO serum free media (CHO-SFM II, Life Technologies) at a density of 2-3 million cells per mL.
(§2) Patch clamp experiments were performed on the Qube APC (automated patch clamp) platform (Sophion Bioscience A/S, Ballerup, Denmark) using the 384X 10-hole chip at 35° C. Intracellular KF-Ringer's solution consisted of (in mM) 120 KF, 20 KCl, […] ethylene glycol-bis(2-aminoethylether)-N,N,N′,N′-tetraacetic acid (EGTA) and 10 (4-(2-hydroxyethyl)-1-piperazineethanesulfonic acid (HEPES), pH at 7.2 with KOH. Extracellular solution consisted of (in mM) 145 NaCl, 4 KCl, 2 CaCl2, 1 MgCl2, 10 HEPES, 10 Glucose and 0.3% dimethyl sulfoxide (DMSO), pH at 7.4 with NaOH. The hERG current was elicited by applying the following voltage protocol: cells are held at −90 mV resting membrane potential for 100 msec, then clamped at −50 mV for 100 msec for leak estimation, depolarized to +20 mV for 4 sec (peak current measurement) and finally repolarized to −50 mV for 4 sec (tail current recording) before returning to the holding potential of −90 mV. The data are sampled at 10 KHz, with cutoff at 2 kHz, and filtered using the Bessel filter. The protocol was repeated every 15 s, 30 times before and 30 times after a compound application.
All compounds were prepared as 10 mM stock in 100% DMSO, then serially dilutes 1:3 down in Labcyte 384-well Echo Qualified LDV (low […] volume) microplate. The Qube assay plate was prepared by transferring 0.15-0.3 μL of a compound from the serial dilution plate to the 384-well Greiner plate using Labcyte Echo 650 liquid handler (Beckman). Right before the experiment, the compounds in each well were further diluted in extracellular solution using Biomek i7 liquid handler (Beckman) to create the final concentrations of 0.37, 1.1, 3.3, 10, 15 and 30 μM (1:333 dilution to keep the final DMSO concentration in all samples ≤0.3%). Amitriptyline hydrochloride (positive control) and DMSO (0.3%, vehicle control) were included in each plate.
(§3) The results were initially reviewed using the Qube specific Sophion Analyzer software (Sophion Bioscience), then analyzed using Data Analysis and Visualization in Discovery (DAVID) software package (Novartis AG). The compound effect on hERG current inhibition (normalized percentage of inhibition) was calculated as % Inh=(Icompound−Ivehicle)/Ivehicle*−100, where Icompound and Ivehicle are the averages of the last three leak-corrected tail hERG currents […] a compound application, respectively. […]

hERG [3] = biological target: T3, hERG (Homo sapiens, UniProt Q12809); experiment: as above; parameters: expressed in transfected cells; host or cells: CHO (T-REX) cells, tetracycline-induced; conditions: human, pH 7.4; 30 μM, CHO (T-REx) hERG cells, 35° C.
Procedure: as §1, §2
All compounds were prepared as 10 mM stock in 100% DMSO, then serially dilutes 1:3 down in Labcyte 384-well Echo Qualified LDV (low diamond volume) microplate. […]
as §3

hERG [4] = biological target: T3, hERG; experiment: hERG channel test using the QPatch technology (automated patch clamp, CHO cells); parameters: host or cells: CHO cells; conditions: for inhibition at 4 min, 30 µM: human, CHO cells stably expressing hERG channels, pH 7.4, highest test concentration 30 μM
Procedure: CHO cells (AVIVA Biosciences Corp, San Diego, CA) stably expressing hERG channels were patched using a QPatch-HT automated patch clamp instrument (Sophion Bioscience A/S, Ballerup, Denmark) in single hole mode. The intracellular solution consisted of 120 mM KCl, 5 mM CaCl2, 2 mM MgCl2, 10 mM ethylene glycolbis (2-aminoethylether)-N,N,N′,N′-tetraacetic acid (EGTA), 10 mM (4-(2-hydroxyethyl)-1-piperazineethanesulfonic acid (HEPES), and 4 mM dipotassium adenosine-5′-triphosphate (ATP-K2), pH adjusted to 7.2 using KOH. The extracellular solution consisted of 145 mM NaCl, 4 mM KCl, 2 CaCl2, 1 mM MgCl2, 10 mM HEPES, and 0.3% dimethyl sulfoxide (DMSO), adjusted to pH 7.4 using NaOH. All measurements were performed at room temperature, and the blockers were pre-incubated for 4 min. The cells were voltage clamped at −90 mV and the hERG current was activated using a voltage step to +20 mV for 4 s. The hERG tail currents were measured by stepping down to −50 mV for 4 s before returning to −90 mV. This protocol was repeated every 20 s. The peak hERG current was automatically corrected by subtracting the leak current, which was estimated by measuring the mean current during a short depolarizing step to −50 mV from the resting membrane potential just prior to the long depolarizing step to • +20 mV at the beginning of the voltage protocol. Test articles were diluted using DMSO stock solutions and the extracellular solution. […] The effect of the test article on the hERG tail current was assessed and 1, 10 and 30 μM and a positive control (amitriptiline, 1, 3 and μM) was included on each plate.

[5] = CHO (T-REx) hERG cells, 35° C., tail current
[6] = CHO cells stably expressing hERG, room temperature

T3 sequence (Q12809 whole entry): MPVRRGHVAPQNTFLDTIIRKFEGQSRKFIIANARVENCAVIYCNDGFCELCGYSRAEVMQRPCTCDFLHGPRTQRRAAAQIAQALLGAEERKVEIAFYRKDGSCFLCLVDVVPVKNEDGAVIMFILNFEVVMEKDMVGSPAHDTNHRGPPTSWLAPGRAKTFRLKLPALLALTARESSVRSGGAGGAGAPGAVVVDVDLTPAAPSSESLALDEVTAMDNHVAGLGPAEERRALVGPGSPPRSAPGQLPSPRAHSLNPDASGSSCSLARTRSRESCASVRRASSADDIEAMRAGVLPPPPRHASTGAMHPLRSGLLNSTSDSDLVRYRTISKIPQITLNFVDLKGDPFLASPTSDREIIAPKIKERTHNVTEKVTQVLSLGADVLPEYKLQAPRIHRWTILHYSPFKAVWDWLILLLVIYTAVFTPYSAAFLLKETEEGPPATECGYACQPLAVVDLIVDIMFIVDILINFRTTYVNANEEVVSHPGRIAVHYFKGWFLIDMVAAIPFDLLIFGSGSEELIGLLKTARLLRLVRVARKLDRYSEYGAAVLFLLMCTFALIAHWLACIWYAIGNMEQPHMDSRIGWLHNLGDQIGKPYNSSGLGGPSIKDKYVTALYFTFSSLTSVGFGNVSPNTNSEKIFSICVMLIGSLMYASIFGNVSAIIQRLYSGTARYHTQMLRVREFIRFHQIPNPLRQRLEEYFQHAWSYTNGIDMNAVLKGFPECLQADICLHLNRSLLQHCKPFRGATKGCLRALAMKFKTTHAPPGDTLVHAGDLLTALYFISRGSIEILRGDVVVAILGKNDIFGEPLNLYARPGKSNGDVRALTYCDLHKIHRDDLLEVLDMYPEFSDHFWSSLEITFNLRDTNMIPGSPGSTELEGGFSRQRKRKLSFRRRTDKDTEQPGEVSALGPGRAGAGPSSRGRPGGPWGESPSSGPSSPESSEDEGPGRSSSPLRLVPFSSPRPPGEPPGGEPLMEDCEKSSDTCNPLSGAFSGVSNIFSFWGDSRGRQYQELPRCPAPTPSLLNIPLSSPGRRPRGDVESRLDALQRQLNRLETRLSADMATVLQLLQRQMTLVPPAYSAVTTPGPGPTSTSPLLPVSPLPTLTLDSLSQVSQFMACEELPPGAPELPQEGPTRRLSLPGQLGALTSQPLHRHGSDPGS
T2 sequence (Q12809 whole entry): as above
T1 sequence (Q96P20 whole entry): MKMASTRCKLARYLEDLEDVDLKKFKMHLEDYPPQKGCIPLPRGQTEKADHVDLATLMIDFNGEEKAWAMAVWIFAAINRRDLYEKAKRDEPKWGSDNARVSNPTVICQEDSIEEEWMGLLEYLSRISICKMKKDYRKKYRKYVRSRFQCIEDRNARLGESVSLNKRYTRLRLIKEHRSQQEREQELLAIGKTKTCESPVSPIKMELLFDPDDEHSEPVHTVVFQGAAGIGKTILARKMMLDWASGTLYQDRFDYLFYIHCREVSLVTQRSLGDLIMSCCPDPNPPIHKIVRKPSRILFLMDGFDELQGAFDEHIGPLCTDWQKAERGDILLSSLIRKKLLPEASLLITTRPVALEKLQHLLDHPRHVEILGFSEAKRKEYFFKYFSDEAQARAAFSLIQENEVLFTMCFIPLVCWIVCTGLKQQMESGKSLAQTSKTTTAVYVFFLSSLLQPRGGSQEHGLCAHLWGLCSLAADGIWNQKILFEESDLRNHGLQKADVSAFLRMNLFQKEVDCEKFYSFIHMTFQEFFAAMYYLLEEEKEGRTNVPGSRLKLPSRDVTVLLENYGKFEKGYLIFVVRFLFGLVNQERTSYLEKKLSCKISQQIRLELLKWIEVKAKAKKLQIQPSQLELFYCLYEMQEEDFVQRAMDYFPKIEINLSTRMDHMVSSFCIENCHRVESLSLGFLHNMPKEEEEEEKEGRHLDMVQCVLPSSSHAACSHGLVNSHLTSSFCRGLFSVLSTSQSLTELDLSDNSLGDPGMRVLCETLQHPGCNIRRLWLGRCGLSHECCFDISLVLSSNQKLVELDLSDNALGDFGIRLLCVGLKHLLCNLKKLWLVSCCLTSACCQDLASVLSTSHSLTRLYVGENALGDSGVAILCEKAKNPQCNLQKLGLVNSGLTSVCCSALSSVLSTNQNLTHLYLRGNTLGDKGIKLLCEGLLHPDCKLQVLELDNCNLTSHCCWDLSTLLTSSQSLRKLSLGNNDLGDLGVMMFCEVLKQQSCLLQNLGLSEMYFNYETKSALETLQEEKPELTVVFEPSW

Row | IC50 (NLRP3 inflammasome) [µM] | Structure (SMILES) | IC50 [1] [µM] | IC50 [2, 5] [µM] | inhibition at 7.5 min, 30 µM (hERG [3]) [%] | IC50 ([2]; unit inferred) [µM] | inhibition at 4 min, 30 µM (hERG [4]; [6]) [%] | IC50 (hERG [4]; unit inferred) [µM] | hERG Qube IC50 compared with reference examples 1 and 2 ([2]; comparison in words) | IC50 (hERG [4]; CHO cells stably expressing hERG, room temperature, tail current, tested at 1, 10 and 30 μM) [µM] | hERG QPatch IC50 compared with reference examples 1 and 2 (hERG [4]; comparison in words)
1 | 0.0037 | Cc1cc(C(F)(F)F)cc(O)c1-c1nnc(N[C@@H]2CCCN(C)C2)c2c1COC2 [Reference ex. 3, 3-methyl-2-(4-(((R)-1-methylpiperidin-3-yl)amino)-5,7-dihydrofuro[3,4-d]pyridazin-1-yl)-5-(trifluoromethyl)phenol] | > 100 | > 30 | 49.8 | – | – | – | – | – | –
2 | – | Cc1cc(-c2c(C)cc(C(F)(F)F)cc2O)nnc1N[C@@H]1CCCN(C)C1 [Reference ex. 1, (R)-3-Methyl-2-(5-methyl-6-((1-methylpiperidin-3-yl)amino)pyridazin-3-yl)-5-(trifluoromethyl)phenol] | > 33 | – | 77.9 | 4.71 | 64.7 | 13.1 | – | – | –
3 | – | Cc1cc(C(F)(F)F)cc(O)c1-c1cc(C(F)(F)F)c(N[C@@H]2CCCN(C)C2)nn1 [Reference ex. 2, (R)-3-methyl-2-(6-((1-methylpiperidin-3-yl)amino)-5-(trifluoromethyl)pyridazin-3-yl)-5-(trifluoromethyl)phenol] | > 100 | – | 74.9 | 5.62 | 93.6 | 3.9 | – | – | –
4 | 0.00072 | Cc1cc(C(F)(F)F)cc(O)c1-c1cc(CO)c(N[C@@H]2CCCN(C)C2)nn1 [Example 1, (R)-2-(5-(hydroxymethyl)-6-((1-methylpiperidin-3-yl)amino)pyridazin-3-yl)-3-methyl-5-(trifluoromethyl)phenol] | > 100 | > 30 | 40.9 | – | 24.3 | – | considerably increased | > 30 | considerably increased

Reference: US12378222B2, “NLRP3 inflammasome inhibitors” (Novartis AG, priority 2022, dated 2025)
